# Measurements: US4020076A, “Novel phosphoryloxy-thiazoles” (priority 1974, dated 1977)
# Like-named read-outs stand apart in the source and are kept apart here.
# What was measured:
# Type in all cases: in vivo
# Spodoptera littoralis = assay: Ingestion test against Spodoptera littoralis caterpillars; conditions: po, ingestion, read-out: percent of mortality
# Method: e. Activity against Spodoptera littoralis
# This test was effected with Spodoptera littoralis caterpillars 1 to 1.5 cm long and an average of 10 days old. In this ingestion test, 4 ml of an acetone solution of the test products was placed on lettuce rings with an 8 mm diameter which were placed in closed plastic dishes with a 5 cm diameter. 15 caterpillars were placed in each dish and were held at 20° C and 50% relative humidity and were fed when the insects had eaten the treated lettuce ring.
# Musca domestica larvae = assay: Contact-ingestion test against Musca domestica larvae; conditions: read-out: percent of mortality
# Method: g. Activity against Musca domestica larvae
# This contact-ingestion test consisted of placing 2 ml of an acetone solution of different concentrations of the test product on 1 g of bran placed in a watch glass and the solvent was evaporated. The treated bran was placed in a plastic dish and was admixed with 2 ml of milk. 20 3 to 4 day old larvae of Musca domestica were added to the bran and were held at 20° C and 30% relative humidity and 3 tests were conducted for each concentration.
# [1] = test system: Agrostis Segetum caterpillars; assay: Activity against Agrostis Segetum caterpillars
# Method: i. Activity against Agrostis Segetum caterpillars
# Larvae of Agrostis Segetum in the fifth stage were placed in small boxes whose bottom (26 cm on a side) is in the form of a square with a height of 20 cm. The boxes were filled with dirt to a height of 8 cm and 5 lettuce plants of about 15 cm high were planted and 10 caterpillars were placed in each box and after 3 hours, the boxes were each sprayed with 5 ml of an aqueous solution of the test product and the percent of efficacy is reported in Table IX.
# Meloidogynes spec = assay: Nematocidal activity against Meloidogynes spec (tomato root galls); conditions: 250 Kg/ha
# Method: a. Activity against Meloidogynes spec
# A volume of about 3 liters of dirt infested with Meloidogynes spec was placed in a plastic sack. Nematocidal treatments are considered effective to a depth of 30 cm, a volume of 3 liters of dirt corresponding to a surface area of 100 cm^ 2 or 10^-^6 ha (since 100 cm^ 2 × 30 cm = 3000 ml or 3 liters). Each volume of infested dirt received 100 ml of an aqueous suspension containing 0.250 g of the test product (corresponding to 250 Kg/ha) and the controls received only 100 ml of water. The plastic sacks containing the dirt were immediately sealed after the treatment and then agitated to obtain a good distribution of the product. Two weeks after the treatment, the sacks were opened and the dirt was used to plant 3 tomato plants of St. Pierre variety. The plants used were raised in the greenhouse with dirt sterilized with heat to obtain plants free of nematodes. Three plants were used for each test which was run 6 times for each treatment. Two months after planting the tomatoes were removed from the dirt and the efficacy was determined by counting the number of galls observed on the roots. A correlation between the population of Meloidogynes in the pot and the number of galls exists.
# Sitophilus granarius = assay: Topical application test against Sitophilus granarius; conditions: read-out: percent mortality
# Method: c. Test against Sitophilus granarius
# This topical application test comprised preparing the test compounds in acetone solution at concentrations of 5000, 500 and 50 mg of the active compound per liter and 0.2 μl of the solutions were applied to the ventral thorax of 50 Sitophilus granarius for each concentration.
# Blattella germanica = assay: Topical application activity against Blattella germanica; conditions: read-out: percent of mortality
# Method: b. Activity against Blattella germanica
# This test was a topical application in which adult male Blattella germanica received 2 microliters of an acetone solution of the test products between the second and third pair of paws. After this treatment, the test insects were held in a dim light at 20° C and were fed. The results expressed as percent of mortality in Table II were read 24 and 48 hours and 5 days after the treatment.
# [2] = test system: Leptinotarsa Decemlineata; assay: Activity against Leptinotarsa Decemlineata larvae; conditions: for mortality at 500 µg/mL: 50 g/hl; for mortality at 1000 µg/mL: 100 g/hl
# Source text: h. Activity againt Leptinotarsa Decemlineata
# Eggplant leaves with about 40 cm^ 2 of surface area (10 × 4 cm) were cut out of untreated plants and were washed with water and dried before being immersed for 10 seconds in an acetone solution of the test product. After drying, the leaves were placed in a plastic ventilated dish and 10 larvae of Leptinotarsa Decemlineata in the fourth stage were placed thereon.
# Drosophila melanogaster = assay: Vapor activity against Drosophila melanogaster; conditions: inhaled or nasal, read-out: percentage of mortality
# Method: a. Activity against Drosophila melanogaster
# This test measures the vapor activity of the compounds and the less than 48 hours old insects were placed in a Petri dish with a 10 cm diameter connected by a tergal screen to a crystallizer of the same diameter in which the test compound in acetone solution is placed. The said solution is evaporated after the insects have been placed and 3 tests with 25 insects were run for each concentration. The results are expressed in Table I as a percentage of mortality after 1, 2, 4 and 6 hours.
# [3] = 1 h, read-out: % of mortality after 1 H
# [4] = 24 h, read-out: % of mortality after 24 H
# [5] = 48 h, read-out: % of mortality after 48 H
smiles,measurement,setting,value
"CCOc1nc(OP(=S)(OC)OC)c(C#N)s1 [Compound C, 2-ethoxy-4-dimethoxythiophosphoryloxy-5-cyano-thiazole]",mortality at 125 ppm,Spodoptera littoralis; 1 H,0%
same,mortality at 250 ppm,Spodoptera littoralis; 1 H,0%
same,mortality at 500 ppm,Spodoptera littoralis; 1 H,0%
same,mortality at 125 ppm,Spodoptera littoralis; 24 H,70%
same,mortality at 250 ppm,Spodoptera littoralis; 24 H,80%
same,mortality at 500 ppm,Spodoptera littoralis; 24 H,100%
same,mortality at 125 ppm,Spodoptera littoralis; 48 H,70%
same,mortality at 250 ppm,Spodoptera littoralis; 48 H,80%
same,mortality at 500 ppm,Spodoptera littoralis; 48 H,100%
same,mortality at 500 ppm,Musca domestica larvae; 48 H,43%
same,mortality at 5000 ppm,Musca domestica larvae; 48 H,53%
same,mortality at 500 ppm,"Musca domestica larvae; 192 h, 8 Days",63%
same,mortality at 5000 ppm,"Musca domestica larvae; 192 h, 8 Days",73%
same,Emax,"[1]; 72 h, 50 g/hl, read-out: % efficacy after 3 days",50%
same,Emax,"[1]; 72 h, 150 g/hl, read-out: % efficacy after 3 days",80%
same,Emax,"[1]; 72 h, read-out: % efficacy after 3 days, 100 g/hl",25%
same,Emax,"[1]; 120 h, 50 g/hl, read-out: % efficacy after 5 days",100%
same,Emax,"[1]; 120 h, 150 g/hl, read-out: % efficacy after 5 days",100%
same,Emax,"[1]; 120 h, read-out: % efficacy after 5 days, 100 g/hl",50%
same,Emax,"[1]; 168 h, 50 g/hl, read-out: % efficacy after 7 days",100%
same,Emax,"[1]; 168 h, 150 g/hl, read-out: % efficacy after 7 days",100%
same,Emax,"[1]; 168 h, read-out: % efficacy after 7 days, 100 g/hl",100%
same,Relative efficacity in % as compound to controls,Meloidogynes spec,67.4%
same,Number of galls per foot,Meloidogynes spec; control 44.4,32.77
same,Total number of galls,Meloidogynes spec; control 222,295
same,mortality at 50 ppm,Sitophilus granarius; 4 H,0%
same,mortality at 500 ppm,Sitophilus granarius; 4 H,0%
same,mortality at 5000 ppm,Sitophilus granarius; 4 H,100%
same,mortality at 50 ppm,Sitophilus granarius; 24 H,0%
same,mortality at 500 ppm,Sitophilus granarius; 24 H,54%
same,mortality at 5000 ppm,Sitophilus granarius; 24 H,100%
same,mortality at 50 ppm,"Sitophilus granarius; 120 h, 5 Days",0%
same,mortality at 500 ppm,"Sitophilus granarius; 120 h, 5 Days",96%
same,mortality at 5000 ppm,"Sitophilus granarius; 120 h, 5 Days",100%
same,mortality at 312.5 ppm,Blattella germanica; 24 H,80%
same,mortality at 625 ppm,Blattella germanica; 24 H,100%
same,mortality at 1250 ppm,Blattella germanica; 24 H,100%
same,mortality at 312.5 ppm,Blattella germanica; 48 H,80%
same,mortality at 625 ppm,Blattella germanica; 48 H,100%
same,mortality at 1250 ppm,Blattella germanica; 48 H,100%
same,mortality at 312.5 ppm,"Blattella germanica; 120 h, 5 Days",80%
same,mortality at 625 ppm,"Blattella germanica; 120 h, 5 Days",100%
same,mortality at 1250 ppm,"Blattella germanica; 120 h, 5 Days",100%
same,mortality at 500 µg/mL,[2]; [3],0%
same,mortality at 1000 µg/mL,[2]; [3],0%
same,mortality at 500 µg/mL,[2]; [4],40%
same,mortality at 1000 µg/mL,[2]; [4],100%
same,mortality at 500 µg/mL,[2]; [5],40%
same,mortality at 1000 µg/mL,[2]; [5],100%
same,mortality at 5 ppm,Drosophila melanogaster; 1 H,98%
same,mortality at 50 ppm,Drosophila melanogaster; 1 H,100%
same,mortality at 500 ppm,Drosophila melanogaster; 1 H,100%
same,mortality at 5 ppm,Drosophila melanogaster; 4 H,100%
same,mortality at 50 ppm,Drosophila melanogaster; 4 H,100%
same,mortality at 500 ppm,Drosophila melanogaster; 4 H,100%
same,mortality at 5 ppm,Drosophila melanogaster; 6 H,100%
same,mortality at 50 ppm,Drosophila melanogaster; 6 H,100%
same,mortality at 500 ppm,Drosophila melanogaster; 6 H,100%
